This note sets out measurements from article PMC4536133 (Antiviral research, 2015).

In test [1] the test system is HSV-1. Nature of the test: Plaque assay of supernatant of HSV-1 infected Vero cells. In kind it is cell-based, herpes simplex virus type 1 (KOS) in Vero cells.
The next test concerns HSV-1 ICP0 and ICP4. Nature of the test: Immunocytochemistry of HSV-1 immediate early genes ICP0 and ICP4. In kind it is cell-based, herpes simplex virus type 1. The following applies: infected cells.
The test system of test [2] is HSV-1. In words: qPCR for HSV-1 DNA copy number in iPSC-neurons. In kind it is cell-based, herpes simplex virus type 1 (KOS) in human iPSC-neurons. Conditions: acutely infected iPSC-neurons, 24hpi, 50 μM; untreated 3,461,970. A general note: Real-time PCR tracks product formation cycle by cycle.
For test [3], the system named is HSV-1. Nature of the test: Reactivation of quiescent HSV-1 infection in iPSC-neurons, flow cytometry. Conditions: compared to vehicle. In kind it is cell-based, herpes simplex virus type 1 (KOS) in human iPSC-neurons. For orientation: Flow cytometry measures light scatter and fluorescence of single cells or particles in a stream.
Test [4] relates to HSV-1. Nature of the test: FISH analysis of HSV-1 viral DNA in infected cells. In kind it is cell-based, herpes simplex virus type 1. Conditions: HSV-1 infected cells.
Test [5] concerns HSV-1. Nature of the test: Plaque assay of supernatant of reactivated iPSC-neurons titrated on Vero cells. In kind it is cell-based, herpes simplex virus type 1 (KOS) in human iPSC-neurons. Conditions: 5BVdU+IFN-α then drug 48h, NaB reactivation.
The subject of the next test is VZV. In words: VZV infection of ARPE-19 cells, luciferase activity. In kind it is cell-based. Conditions: PAA.

SMILES strings stand for the structures.

For the compound `CCN(CC)CCCC(C)Nc1ccnc2cc(Cl)ccc12` (centres unmarked) [CQ, chloroquine], in the test with HSV-1 [1] (50 μM), the “infectious particles in supernatant of treated infected cultures (plaque assay)” value (shortened to “infectious particles in supernatant”) is “undetectable”.

For the compound `Nc1nc2c(ncn2COCCO)c(=O)[nH]1` [ACV, Acyclovir], the “expression of HSV-1 immediate early genes ICP0 and ICP4” value with HSV-1 ICP0 and ICP4 is reported as “markedly reduced expression”. In the test with HSV-1 [2], the “number of copies of viral DNA in 5 ng of total DNA” value is 483 copies. Further, the “mean intensity of fluorescence (MFI) after reactivation” value with HSV-1 [3] was “lowered”. Also, the “infectious particles in supernatant” value in the test on HSV-1 [1] (50 μM) was “undetectable”. Besides, the “viral DNA copy number by FISH” value in the test on HSV-1 [4] is reported as “substantial reduction”. For the same compound, the “infectious viral particles in supernatant after reactivation” value in the test with HSV-1 [5] is listed as “no detectable infectious viral particles”.

For `CO/C1=C\C(C)=C\[C@@H](C)[C@@H](O)[C@@H](C)C/C(C)=C/C=C/[C@H](OC)[C@@H]([C@@H](C)[C@@H](O)[C@H](C)[C@@]2(O)C[C@@H](O)[C@H](C)[C@@H](C(C)C)O2)OC1=O` [BFLA, bafilomycin A1], in the test on HSV-1 [1] (BFLA 0.1 μM), the “infectious particles in supernatant” value is given as “undetectable”.

Take `O=C(O)CP(=O)(O)O` [PAA, phosphonoacetic acid]: the “inhibition of VZV infection” value in the test with VZV was “effectively inhibited”. For the same compound, the “expression of HSV-1 immediate early genes ICP0 and ICP4” value in the test with HSV-1 ICP0 and ICP4 is listed as “markedly reduced expression”. The “viral DNA copy number by FISH” value with HSV-1 [4] is listed as “substantial reduction”.
